# Assay results as given in patent US20240132431A1, “METHOD FOR ALKYLATING ACIDIC FUNCTIONAL GROUP” (Chugai Seiyaku Kabushiki Kaisha, priority 2021, published 2024).
# Molecular target: T1, Bcl-2 protein (Recombinant Human Bcl-2 Protein) (Homo sapiens, UniProt P10415)
# T1 construct: purchased Novus NBP2-34889
# Experiment: Binding evaluation of mixture library compounds to Bcl-2 using AS-MS (affinity selection mass spectrometry)
# Conditions: AS-MS on the mixture of 1200 library compounds, ASMS Ratio(%)=(A−C)/B×100; for ASMS ratio (%) n = 1: replicate n = 1; for ASMS ratio (%) n = 2: replicate n = 2
# Outline: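 Bcl-2 binding is scored from LC/MS signal retained with protein through gel-filtration spin columns, normalised to unfiltered and protein-free controls. Incubation: 20 μM protein, […] per compound, 1 h, 23° C.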
# T1 sequence (P10415 whole entry): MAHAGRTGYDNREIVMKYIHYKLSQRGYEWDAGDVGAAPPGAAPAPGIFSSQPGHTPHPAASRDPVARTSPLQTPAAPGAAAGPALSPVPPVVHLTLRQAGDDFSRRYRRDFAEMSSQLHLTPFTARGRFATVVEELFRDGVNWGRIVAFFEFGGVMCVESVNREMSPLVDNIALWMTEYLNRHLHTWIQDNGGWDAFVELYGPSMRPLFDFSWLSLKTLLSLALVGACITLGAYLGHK
SMILES,ASMS ratio (%) n = 1 [%],ASMS ratio (%) n = 2 [%]
"CCOc1cncc(-c2ccc(C(=O)N3CCN(c4ccc(C(=O)N(CC)CC)cc4)CC3)cc2F)c1 [B4J028-01, 4-[4-[4-(5-Ethoxypyridin-3-yl)-3-fluorobenzoyl]piperazin-1-yl]-N,N-diethylbenzamide]",−1.0,0.9
"CCOc1cccc(C#Cc2ccccc2C(=O)N2CCN(c3ccc(C(=O)N(CC)CC)cc3)CC2)c1 [B4J029-01, 4-[4-[2-[2-(3-Ethoxyphenyl)ethynyl]benzoyl]piperazin-1-yl]-N,N-diethylbenzamide]",0.0,0.0
"CCOc1cncc(C#Cc2ccccc2C(=O)N2CCN(c3ccc(C(=O)N(CC)CC)cc3)CC2)c1 [B4J030-01, 4-[4-[2-[2-(5-Ethoxypyridin-3-yl)ethynyl]benzoyl]piperazin-1-yl]-N,N-diethylbenzamide]",0.1,0.8
"CCOc1cccc(C#Cc2cncc(C(=O)N3CCN(c4ccc(C(=O)N(CC)CC)cc4)CC3)c2)c1 [B4J031-01, 4-[4-[5-[2-(3-Ethoxyphenyl)ethynyl]pyridine-3-carbonyl]piperazin-1-yl]-N,N-diethylbenzamide]",0.1,0.8
"CCOc1cncc(C#Cc2cncc(C(=O)N3CCN(c4ccc(C(=O)N(CC)CC)cc4)CC3)c2)c1 [B4J032-01, 4-[4-[5-[2-(5-Ethoxypyridin-3-yl)ethynyl]pyridine-3-carbonyl]piperazin-1-yl]-N,N-diethylbenzamide]",−7.2,1.5
"CCOc1cccc(-c2ccccc2CCC(=O)N2CCN(c3ccc(C(=O)N(CC)CC)cc3)CC2)c1 [B4J033-01, 4-[4-[3-[2-(3-Ethoxyphenyl)phenyl]propanoyl]piperazin-1-yl]-N,N-diethylbenzamide]",0.0,−0.9
"CCOc1cncc(-c2ccccc2CCC(=O)N2CCN(c3ccc(C(=O)N(CC)CC)cc3)CC2)c1 [B4J034-01, 4-[4-[3-[2-(5-Ethoxypyridin-3-yl)phenyl]propanoyl]piperazin-1-yl]-N,N-diethylbenzamide]",−0.7,0.9
"CCOc1cccc(-c2ccc(C(=O)N3CCN(c4ccc(C(=O)N(CC)CC)cc4)CC3)c3ccccc23)c1 [B4J035-01, 4-[4-[4-(3-Ethoxyphenyl)naphthalene-1-carbonyl]piperazin-1-yl]-N,N-diethylbenzamide]",4.1,1.5
"CCOc1cncc(-c2ccc(C(=O)N3CCN(c4ccc(C(=O)N(CC)CC)cc4)CC3)c3ccccc23)c1 [B4J036-01, 4-[4-[4-(5-Ethoxypyridin-3-yl)naphthalene-1-carbonyl]piperazin-1-yl]-N,N-diethylbenzamide]",−0.3,−1.6
"CCOc1cccc(-c2cc(C(=O)N3CCN(c4ccc(C(=O)N(CC)CC)cc4)CC3)cc(C(C)(C)C)c2)c1 [B4J037-01, 4-[4-[3-tert-Butyl-5-(3-ethoxyphenyl)benzoyl]piperazin-1-yl]-N,N-diethylbenzamide]",2.7,−1.5
"CCOc1cncc(-c2cc(C(=O)N3CCN(c4ccc(C(=O)N(CC)CC)cc4)CC3)cc(C(C)(C)C)c2)c1 [B4J038-01, 4-[4-[3-tert-Butyl-5-(5-ethoxypyridin-3-yl)benzoyl]piperazin-1-yl]-N,N-diethylbenzamide]",0.8,0.0
"CCOc1cccc(-c2cc(C(=O)N3CCN(c4ccc(C(=O)N(CC)CC)cc4)CC3)cc(C(F)(F)F)c2)c1 [B4J039-01, 4-[4-[3-(3-Ethoxyphenyl)-5-(trifluoromethyl)benzoyl]piperazin-1-yl]-N,N-diethylbenzamide]",2.2,0.1
"CCOc1cncc(-c2cc(C(=O)N3CCN(c4ccc(C(=O)N(CC)CC)cc4)CC3)cc(C(F)(F)F)c2)c1 [B4J040-01, 4-[4-[3-(5-Ethoxypyridin-3-yl)-5-(trifluoromethyl)benzoyl]piperazin-1-yl]-N,N-diethylbenzamide]",−0.5,−1.2
"CCOc1cccc(C#Cc2cc(C(=O)N3CCN(c4ccc(C(=O)N(CC)CC)cc4)CC3)cc(C(F)(F)F)c2)c1 [B4J041-01, 4-[4-[3-[2-(3-Ethoxyphenyl)ethynyl]-5-(trifluoromethyl)benzoyl]piperazin-1-yl]-N,N-diethylbenzamide]",2.8,1.7
"CCOc1cncc(C#Cc2cc(C(=O)N3CCN(c4ccc(C(=O)N(CC)CC)cc4)CC3)cc(C(F)(F)F)c2)c1 [B4J042-01, 4-[4-[3-[2-(5-Ethoxypyridin-3-yl)ethynyl]-5-(trifluoromethyl)benzoyl]piperazin-1-yl]-N,N-diethylbenzamide]",1.0,0.0
"CCOc1cccc(-c2cnn(-c3cc(C(=O)N4CCN(c5ccc(C(=O)N(CC)CC)cc5)CC4)cc(C(F)(F)F)c3)c2)c1 [B4J043-01, 4-[4-[3-[4-(3-Ethoxyphenyl)pyrazol-1-yl]-5-(trifluoromethyl)benzoyl]piperazin-1-yl]-N,N-diethylbenzamide]",3.8,3.2

SMILES,ASMS ratio (%) n = 1 [%],ASMS ratio (%) n = 2 [%]
"CCOc1cncc(-c2cnn(-c3cc(C(=O)N4CCN(c5ccc(C(=O)N(CC)CC)cc5)CC4)cc(C(F)(F)F)c3)c2)c1 [B4J044-01, 4-[4-[3-[4-(5-Ethoxypyridin-3-yl)pyrazol-1-yl]-5-(trifluoromethyl)benzoyl]piperazin-1-yl]-N,N-diethylbenzamide]",1.8,0.3
"CCOc1cccc(-c2ccccc2CN2CCN(c3ccc(C(=O)N(CC)CC)cc3)CC2)c1 [B4J045-01, 4-[4-[[2-(3-Ethoxyphenyl)phenyl]methyl]piperazin-1-yl]-N,N-diethylbenzamide]",1.1,0.3
CCOc1cncc(-c2ccccc2CN2CCN(c3ccc(C(=O)N(CC)CC)cc3)CC2)c1 [B4J046-01],0.0,0.0
"CCOc1cccc(-c2ccc(CN3CCN(c4ccc(C(=O)N(CC)CC)cc4)CC3)cc2C)c1 [B4J047-01, 4-[4-[[4-(3-Ethoxyphenyl)-3-methylphenyl]methyl]piperazin-1-yl]-N,N-diethylbenzamide]",−6.6,0.0
"CCOc1cncc(-c2ccc(CN3CCN(c4ccc(C(=O)N(CC)CC)cc4)CC3)cc2C)c1 [B4J048-01, 4-[4-[[4-(5-Ethoxypyridin-3-yl)-3-methylphenyl]methyl]piperazin-1-yl]-N,N-diethylbenzamide]",1.2,−2.1
"CCOc1cccc(-c2ccc(CN3CCN(c4ccc(C(=O)N(CC)CC)cc4)CC3)c(CC)c2)c1 [B4J049-01, 4-[4-[[4-(3-Ethoxyphenyl)-2-ethylphenyl]methyl]piperazin-1-yl]-N,N-diethylbenzamide]",7.1,−1.4
"CCOc1cncc(-c2ccc(CN3CCN(c4ccc(C(=O)N(CC)CC)cc4)CC3)c(CC)c2)c1 [B4J050-01, 4-[4-[[4-(5-Ethoxypyridin-3-yl)-2-ethylphenyl]methyl]piperazin-1-yl]-N,N-diethylbenzamide]",2.1,0.6
"CCOc1cccc(-c2ccc(CN3CCN(c4ccc(C(=O)N(CC)CC)cc4)CC3)cc2F)c1 [B4J051-01, 4-[4-[[4-(3-Ethoxyphenyl)-3-fluorophenyl]methyl]piperazin-1-yl]-N,N-diethylbenzamide]",−9.6,−10.2
CCOc1cncc(-c2ccc(CN3CCN(c4ccc(C(=O)N(CC)CC)cc4)CC3)cc2F)c1 [B4J052-01],0.5,−1.5
"CCOc1cccc(-c2ccc(CN3CCN(c4ccc(C(=O)N(CC)CC)cc4)CC3)c(OC)c2)c1 [B4J053-01, 4-[4-[[4-(3-Ethoxyphenyl)-2-methoxyphenyl]methyl]piperazin-1-yl]-N,N-diethylbenzamide]",−0.1,−6.0
"CCOc1cncc(-c2ccc(CN3CCN(c4ccc(C(=O)N(CC)CC)cc4)CC3)c(OC)c2)c1 [B4J054-01, 4-[4-[[4-(5-Ethoxypyridin-3-yl)-2-methoxyphenyl]methyl]piperazin-1-yl]-N,N-diethylbenzamide]",0.0,−1.1
"CCOc1cccc(-c2cc(CN3CCN(c4ccc(C(=O)N(CC)CC)cc4)CC3)cc(OCC)c2)c1 [B4J055-01, 4-[4-[[3-Ethoxy-5-(3-ethoxyphenyl)phenyl]methyl]piperazin-1-yl]-N,N-diethylbenzamide]",−0.7,1.4
CCOc1cncc(-c2cc(CN3CCN(c4ccc(C(=O)N(CC)CC)cc4)CC3)cc(OCC)c2)c1 [B4J056-01],−1.4,−1.5
"CCOc1cccc(-c2cc(CN3CCN(c4ccc(C(=O)N(CC)CC)cc4)CC3)cc(OC(C)C)c2)c1 [B4J057-01, 4-[4-[[3-(3-Ethoxyphenyl)-5-propan-2-yloxyphenyl]methyl]piperazin-1-yl]-N,N-diethylbenzamide]",5.3,−0.1
"CCOc1cncc(-c2cc(CN3CCN(c4ccc(C(=O)N(CC)CC)cc4)CC3)cc(OC(C)C)c2)c1 [B4J058-01, 4-[4-[[3-(5-Ethoxypyridin-3-yl)-5-propan-2-yloxyphenyl]methyl]piperazin-1-yl]-N,N-diethylbenzamide]",2.2,0.5
